Columns and labels:
[1] = Antioxidant activity assessed as trolox equivalent of AAPH radical scavenging activity measured every min for 90 mins by ORAC-FL assay; format: functional
[2] = molecular target: T1, Amine oxidase [flavin-containing] B (Homo sapiens, UniProt P27338); experiment: Inhibition of recombinant human MAOB at 10 uM using kynuramine as substrate preincubated for 30 mins followed by substrate addition and measured after 30 mins by fluorescence assay relative to control; details: 0.5 h
T1 sequence (P27338 whole entry): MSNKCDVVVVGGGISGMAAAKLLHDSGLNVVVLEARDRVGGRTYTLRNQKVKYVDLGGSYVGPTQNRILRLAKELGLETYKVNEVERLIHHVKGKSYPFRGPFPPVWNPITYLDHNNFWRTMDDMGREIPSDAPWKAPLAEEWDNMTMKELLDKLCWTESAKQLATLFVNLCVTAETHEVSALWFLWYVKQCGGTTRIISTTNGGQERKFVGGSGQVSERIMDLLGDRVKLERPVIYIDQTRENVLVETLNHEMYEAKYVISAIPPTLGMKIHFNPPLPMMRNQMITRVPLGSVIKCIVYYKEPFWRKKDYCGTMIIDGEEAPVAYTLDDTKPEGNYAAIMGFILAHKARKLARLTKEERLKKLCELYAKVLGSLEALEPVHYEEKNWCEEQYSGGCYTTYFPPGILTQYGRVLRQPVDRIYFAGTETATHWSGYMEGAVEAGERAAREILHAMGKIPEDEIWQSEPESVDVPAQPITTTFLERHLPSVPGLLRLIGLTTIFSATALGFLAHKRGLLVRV

[3] = molecular target: Acetylcholinesterase (Electrophorus electricus) (UniProt O42275); experiment: Inhibition of Electrophorus electricus AChE at 10 uM using acetylthiocholine iodide as substrate incubated for 15 mins by Ellman's method relative to control
Chain of Acetylcholinesterase (Electrophorus electricus) (O42275 24-633 limits assumed): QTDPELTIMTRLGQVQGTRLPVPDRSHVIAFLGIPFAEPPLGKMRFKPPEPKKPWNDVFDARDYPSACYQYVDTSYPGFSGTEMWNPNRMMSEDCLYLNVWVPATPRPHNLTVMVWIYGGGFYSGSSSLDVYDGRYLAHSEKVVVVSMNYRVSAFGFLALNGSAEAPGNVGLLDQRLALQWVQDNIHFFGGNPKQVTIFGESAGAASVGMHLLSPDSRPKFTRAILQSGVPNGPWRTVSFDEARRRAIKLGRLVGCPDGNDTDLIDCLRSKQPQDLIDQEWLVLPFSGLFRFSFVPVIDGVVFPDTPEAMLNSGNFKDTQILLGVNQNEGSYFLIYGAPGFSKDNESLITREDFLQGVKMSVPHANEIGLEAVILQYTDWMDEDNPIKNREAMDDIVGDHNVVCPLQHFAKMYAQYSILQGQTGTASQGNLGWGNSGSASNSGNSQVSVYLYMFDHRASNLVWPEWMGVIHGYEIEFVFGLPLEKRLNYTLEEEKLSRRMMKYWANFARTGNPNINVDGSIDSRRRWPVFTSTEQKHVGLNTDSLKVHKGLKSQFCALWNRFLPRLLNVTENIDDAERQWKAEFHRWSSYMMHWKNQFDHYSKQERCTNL

[4] = molecular target: butyrylcholinesterase (BuChE) (Rattus norvegicus, UniProt Q9JKC1); experiment: Inhibition of rat serum BuChE at 10 uM using butyrylthiocholine iodide as substrate incubated for 15 mins by Ellman's method relative to control; format: cell-free; details: probe butyrylthiocholine iodide
Chain of butyrylcholinesterase (BuChE) (Q9JKC1 whole entry): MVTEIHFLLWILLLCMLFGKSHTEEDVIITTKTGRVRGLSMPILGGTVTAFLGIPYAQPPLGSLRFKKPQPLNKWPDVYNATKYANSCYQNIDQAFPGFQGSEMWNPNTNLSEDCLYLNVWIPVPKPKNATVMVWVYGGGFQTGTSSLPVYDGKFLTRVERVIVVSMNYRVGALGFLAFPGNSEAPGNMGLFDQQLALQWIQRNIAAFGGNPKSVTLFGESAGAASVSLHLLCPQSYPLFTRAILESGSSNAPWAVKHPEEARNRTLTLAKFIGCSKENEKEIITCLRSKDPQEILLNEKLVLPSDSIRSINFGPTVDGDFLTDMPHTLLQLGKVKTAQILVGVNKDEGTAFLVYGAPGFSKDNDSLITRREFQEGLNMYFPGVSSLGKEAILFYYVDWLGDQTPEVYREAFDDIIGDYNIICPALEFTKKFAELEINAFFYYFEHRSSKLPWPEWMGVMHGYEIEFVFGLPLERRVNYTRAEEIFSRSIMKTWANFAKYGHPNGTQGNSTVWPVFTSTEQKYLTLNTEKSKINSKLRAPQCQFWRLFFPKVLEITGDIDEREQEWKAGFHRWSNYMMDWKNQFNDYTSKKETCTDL

MAO-A = molecular target: T2, MAO-A (Homo sapiens, UniProt P21397); experiment: Inhibition of recombinant human MAOA at 10 uM using kynuramine as substrate preincubated for 30 mins followed by substrate addition and measured after 30 mins by fluorescence assay relative to control; details: probe kynuramine, time 60 min
T2 sequence (P21397 whole entry): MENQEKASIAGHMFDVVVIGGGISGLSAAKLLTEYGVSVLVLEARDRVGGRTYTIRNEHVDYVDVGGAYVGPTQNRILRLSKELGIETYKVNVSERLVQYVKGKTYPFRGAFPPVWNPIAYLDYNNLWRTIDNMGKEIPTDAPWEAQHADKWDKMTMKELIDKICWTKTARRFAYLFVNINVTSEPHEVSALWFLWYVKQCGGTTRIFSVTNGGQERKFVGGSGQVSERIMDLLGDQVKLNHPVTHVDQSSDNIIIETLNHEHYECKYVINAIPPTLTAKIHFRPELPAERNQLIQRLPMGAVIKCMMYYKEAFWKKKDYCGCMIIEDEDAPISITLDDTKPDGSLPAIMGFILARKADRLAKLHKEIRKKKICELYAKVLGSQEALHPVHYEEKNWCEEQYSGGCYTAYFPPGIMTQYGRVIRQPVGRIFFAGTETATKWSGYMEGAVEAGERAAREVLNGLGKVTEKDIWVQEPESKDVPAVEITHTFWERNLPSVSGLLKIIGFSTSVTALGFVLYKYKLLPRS

Acetylcholinesterase [5] = molecular target: Acetylcholinesterase (Electrophorus electricus, UniProt O42275); experiment: Inhibition of Electrophorus electricus AChE using acetylthiocholine iodide as substrate incubated for 15 mins by Ellman's method
Chain of Acetylcholinesterase (Electrophorus electricus, UniProt O42275) (O42275 whole entry, the tested form may be a part): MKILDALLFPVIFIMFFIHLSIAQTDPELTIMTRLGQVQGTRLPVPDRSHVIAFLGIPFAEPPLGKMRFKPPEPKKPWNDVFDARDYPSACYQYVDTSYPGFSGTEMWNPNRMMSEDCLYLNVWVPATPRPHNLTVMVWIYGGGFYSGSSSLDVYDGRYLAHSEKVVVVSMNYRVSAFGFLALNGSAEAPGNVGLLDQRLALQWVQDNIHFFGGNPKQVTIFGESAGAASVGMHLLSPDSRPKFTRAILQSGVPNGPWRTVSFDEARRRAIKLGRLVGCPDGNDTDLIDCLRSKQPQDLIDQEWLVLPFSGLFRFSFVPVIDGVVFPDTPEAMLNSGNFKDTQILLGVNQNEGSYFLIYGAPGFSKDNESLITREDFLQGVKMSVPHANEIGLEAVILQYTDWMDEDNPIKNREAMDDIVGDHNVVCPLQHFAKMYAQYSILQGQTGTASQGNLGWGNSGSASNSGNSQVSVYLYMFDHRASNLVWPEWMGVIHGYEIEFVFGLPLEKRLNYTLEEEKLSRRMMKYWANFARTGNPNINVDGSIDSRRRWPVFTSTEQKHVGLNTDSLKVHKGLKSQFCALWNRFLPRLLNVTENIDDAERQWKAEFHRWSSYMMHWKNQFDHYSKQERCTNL

[6] = Inhibition of Cu2+-induced amyloid beta (1 to 42 residues) aggregation at 25 uM after 24 hrs by thioflavin T-based fluorescence assay relative to control
[7] = molecular target: Amyloid-beta precursor protein (Homo sapiens) (UniProt P05067); experiment: Inhibition of amyloid beta (1 to 42) (unknown origin) self aggregation at 25 uM after 24 hrs by thioflavin-T fluorescence method relative to control
Chain of Amyloid-beta precursor protein (Homo sapiens) (P05067 whole entry): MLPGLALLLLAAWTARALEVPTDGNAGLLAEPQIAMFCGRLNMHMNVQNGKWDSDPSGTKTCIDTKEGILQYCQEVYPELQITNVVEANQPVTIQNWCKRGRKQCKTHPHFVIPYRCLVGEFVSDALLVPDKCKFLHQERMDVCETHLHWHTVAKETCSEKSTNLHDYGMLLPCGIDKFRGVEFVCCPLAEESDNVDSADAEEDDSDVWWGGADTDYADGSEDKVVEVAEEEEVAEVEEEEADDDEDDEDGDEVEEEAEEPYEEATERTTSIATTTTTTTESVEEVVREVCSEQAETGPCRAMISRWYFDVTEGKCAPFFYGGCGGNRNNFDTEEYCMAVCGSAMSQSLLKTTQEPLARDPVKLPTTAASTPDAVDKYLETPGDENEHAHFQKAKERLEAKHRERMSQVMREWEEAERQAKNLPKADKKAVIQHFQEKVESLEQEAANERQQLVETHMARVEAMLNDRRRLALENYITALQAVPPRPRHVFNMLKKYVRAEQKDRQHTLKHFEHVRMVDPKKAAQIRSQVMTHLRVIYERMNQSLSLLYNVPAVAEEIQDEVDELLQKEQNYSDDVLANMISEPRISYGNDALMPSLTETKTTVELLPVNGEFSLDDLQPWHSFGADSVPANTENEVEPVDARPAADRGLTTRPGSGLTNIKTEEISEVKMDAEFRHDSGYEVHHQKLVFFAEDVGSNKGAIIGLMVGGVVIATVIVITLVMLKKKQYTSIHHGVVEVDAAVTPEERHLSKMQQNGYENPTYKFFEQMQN

Plasma = experiment: Antiplatelet activity in rat platelet-rich plasma assessed as inhibition of ADP-induced platelet aggregation at 33 uM preincubated for 30 mins followed by ADP addition measured within 5 mins by aggregometry relative to control; format: functional; details: time 30-35 min
Acetylcholinesterase [8] = molecular target: Acetylcholinesterase (Homo sapiens, UniProt P22303); experiment: Inhibition of human AChE using acetylthiocholine iodide as substrate incubated for 15 mins by Ellman's method
Chain of Acetylcholinesterase (Homo sapiens, UniProt P22303) (P22303 whole entry): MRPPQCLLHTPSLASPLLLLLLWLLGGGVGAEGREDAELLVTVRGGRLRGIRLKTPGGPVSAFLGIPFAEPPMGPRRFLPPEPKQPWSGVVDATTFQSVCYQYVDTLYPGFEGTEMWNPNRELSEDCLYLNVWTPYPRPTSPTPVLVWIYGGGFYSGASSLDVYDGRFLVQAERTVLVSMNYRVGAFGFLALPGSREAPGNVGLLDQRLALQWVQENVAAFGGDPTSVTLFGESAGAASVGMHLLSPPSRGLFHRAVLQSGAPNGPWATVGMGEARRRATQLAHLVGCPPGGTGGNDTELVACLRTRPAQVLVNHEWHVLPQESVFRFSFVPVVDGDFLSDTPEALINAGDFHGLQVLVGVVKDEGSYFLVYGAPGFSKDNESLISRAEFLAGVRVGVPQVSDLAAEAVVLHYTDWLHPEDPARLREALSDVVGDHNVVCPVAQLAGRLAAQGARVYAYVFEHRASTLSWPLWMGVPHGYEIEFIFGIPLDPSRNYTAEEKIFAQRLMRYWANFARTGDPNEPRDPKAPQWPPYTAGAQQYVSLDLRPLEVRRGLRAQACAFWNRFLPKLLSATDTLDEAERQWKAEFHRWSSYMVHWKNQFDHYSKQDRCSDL

| Structure (SMILES) | Activity [1] | inhibition at 10 µM [2] | inhibition [3] | inhibition at […], 10 µM [4] | inhibition at 0.5 h, 10 µM (MAO-A) | IC50 (Acetylcholinesterase [5]) | inhibition [6] | inhibition [7] | inhibition at 33 µM (Plasma) | IC50 (Acetylcholinesterase [8]) |
| --- | --- | --- | --- | --- | --- | --- | --- | --- | --- | --- |
| COc1cc2c(cc1OC)C(Cc1ccc(N3CCN(C)CC3)c(O)c1)OC2=O (stereo not drawn) | 2.09 equiv | 17% | 42.4% | < 5% | 5.6% | – | – | – | – | – |
| COc1cc2c(cc1OC)C(Cc1ccc(N3CCOCC3)c(O)c1)OC2=O (stereo not drawn) | 2.42 equiv | 34.7% | – | < 5% | 8.7% | 8260 nM | 9.5% | 29.5% | – | – |
| CC(=O)Oc1ccccc1C(=O)O [ASPIRIN] | – | – | – | – | – | – | – | – | 12.4% | – |
| CCN(CC)c1ccc(/C=C2/OC(=O)c3cc(OC)c(OC)cc32)cc1O | 4.48 equiv | 49% | – | 5.7% | 48% | 26 nM | – | 26.1% | < 5% | – |
| CCN(CC)c1c(O)cccc1/C=C1\OC(=O)c2cc(OC)c(OC)cc21 | 2.87 equiv | 44.9% | 38% | < 5% | < 5% | – | – | – | – | – |
| COc1cc2c(cc1OC)C(Cc1ccc(N3CCCCC3)c(O)c1)OC2=O (stereo not drawn) | 2.42 equiv | 8.6% | – | 10.3% | 14.8% | 33 nM | 12.8% | 28.9% | < 5% | – |
| COc1cc2c(cc1OC)C(Cc1cccc(O)c1)OC2=O (stereo not drawn) | 0.95 equiv | 6.2% | 14.4% | < 5% | 7.9% | – | – | – | – | – |
| COc1cc2c(cc1OC)C(Cc1cccc(O)c1N1CCOCC1)OC2=O (stereo not drawn) | 2.28 equiv | 19.1% | 11% | < 5% | < 5% | – | – | – | – | – |
| COc1cc2c(cc1OC)C(Cc1cccc(O)c1N1CCCC1)OC2=O (stereo not drawn) | 1.86 equiv | 11.3% | 19.4% | 7.1% | 10.5% | – | – | – | – | – |
| COc1cc2c(cc1OC)C(Cc1ccc(N3CCCC3)c(O)c1)OC2=O (stereo not drawn) | 2.54 equiv | 14.6% | – | 19.8% | < 5% | 960 nM | 18.5% | 31.1% | < 5% | – |
| COc1cc2c(cc1OC)/C(=C\c1cccc(O)c1N1CCN(C)CC1)OC2=O | 1.38 equiv | 13.2% | – | 5.9% | 10% | 12400 nM | – | – | – | – |
| COc1cc2c(cc1OC)/C(=C/c1cccc(O)c1N1CCCCC1)OC2=O | 2.08 equiv | 20.3% | 41.1% | 6.7% | < 5% | – | – | – | – | – |
| CCN(CC)c1ccc(/C=C2\OC(=O)c3cc(OC)c(OC)cc32)cc1O | 2.7 equiv | 39.4% | – | < 5% | < 5% | 72 nM | – | 28.6% | 12.4% | – |
| COc1cc2c(cc1OC)/C(=C\c1ccc(N3CCN(C)CC3)c(O)c1)OC2=O | 2.36 equiv | 31.4% | – | 5.5% | 5% | 2630 nM | – | – | – | – |
| COc1cc2c(cc1OC)/C(=C/c1ccc(N3CCOCC3)c(O)c1)OC2=O | 1.77 equiv | 50.2% | – | < 5% | 5.3% | 9680 nM | – | 26.7% | – | – |
| CCN(CC)c1c(O)cccc1CC1OC(=O)c2cc(OC)c(OC)cc21 (stereo not drawn) | 2.78 equiv | < 5% | 16.3% | 12.5% | < 5% | – | – | – | – | – |

| Structure (SMILES) | Activity [1] | inhibition at 10 µM [2] | inhibition [3] | inhibition at […], 10 µM [4] | inhibition at 0.5 h, 10 µM (MAO-A) | IC50 (Acetylcholinesterase [5]) | inhibition [6] | inhibition [7] | inhibition at 33 µM (Plasma) | IC50 (Acetylcholinesterase [8]) |
| --- | --- | --- | --- | --- | --- | --- | --- | --- | --- | --- |
| COc1cc2c(cc1OC)/C(=C\c1cccc(O)c1N1CCCCC1)OC2=O | 2.58 equiv | 24.2% | 42.8% | 16.4% | < 5% | – | – | – | – | – |
| COc1cc2c(cc1OC)/C(=C\c1ccc(N3CCOCC3)c(O)c1)OC2=O | 1.76 equiv | 13% | – | 5.7% | 18.7% | 2430 nM | – | 24.9% | – | – |
| COc1cc2c(cc1OC)/C(=C/c1ccc(N3CCCCC3)c(O)c1)OC2=O | 1.46 equiv | < 5% | – | < 5% | 6.1% | 66 nM | – | 24.6% | 15.4% | 50 nM |
| COc1cc2c(cc1OC)/C(=C/c1cccc(O)c1N1CCN(C)CC1)OC2=O | 2.09 equiv | 29.5% | 22.3% | < 5% | < 5% | – | – | – | – | – |
| COc1cc2c(cc1OC)/C(=C/c1cccc(O)c1N1CCOCC1)OC2=O | 1.48 equiv | 27.9% | 15.1% | < 5% | 6.6% | – | – | – | – | – |
| COc1cc2c(cc1OC)/C(=C/c1ccc(N3CCCC3)c(O)c1)OC2=O | 4.1 equiv | 28.3% | – | 9.4% | 5.1% | 31 nM | – | 23% | < 5% | – |
| COc1cc2c(cc1OC)C(Cc1cccc(O)c1N1CCN(C)CC1)OC2=O (stereo not drawn) | 2.13 equiv | < 5% | 14% | < 5% | < 5% | – | – | – | – | – |
| COc1cc2c(cc1OC)C(Cc1cccc(O)c1N1CCCCC1)OC2=O (stereo not drawn) | 1.44 equiv | 15.6% | 12.6% | < 5% | < 5% | – | – | – | – | – |
| COc1cc2c(cc1OC)/C(=C\c1cccc(O)c1N1CCOCC1)OC2=O | 2.06 equiv | 10.1% | 40.8% | 11.3% | < 5% | – | – | – | – | – |
| CCN(CC)c1cc(/C=C2/OC(=O)c3cc(OC)c(OC)cc32)ccc1O | 2.62 equiv | 24.9% | – | 25.1% | < 5% | 0.307 nM | – | 33.6% | 53.8% | 1.28 nM |
| COc1cc2c(cc1OC)/C(=C/c1cccc(O)c1N1CCCC1)OC2=O | 2.18 equiv | 10.3% | – | 8.8% | < 5% | 8860 nM | – | – | – | – |
| CCN(CC)c1c(O)cccc1/C=C1/OC(=O)c2cc(OC)c(OC)cc21 | 2.53 equiv | 44.6% | 46.9% | 31.4% | < 5% | – | – | – | – | – |
| CCN(CC)c1ccc(CC2OC(=O)c3cc(OC)c(OC)cc32)cc1O (stereo not drawn) | 2.14 equiv | < 5% | – | < 5% | < 5% | 2210 nM | 14.3% | 30.1% | < 5% | – |
| COc1cc2c(cc1OC)/C(=C\c1cccc(O)c1N1CCCC1)OC2=O | 2.46 equiv | 12.5% | – | 49.6% | < 5% | 19500 nM | – | – | – | – |
| COc1cc2c(cc1OC)/C(=C\c1ccc(N3CCCC3)c(O)c1)OC2=O | 2.82 equiv | 27.8% | – | 16.5% | 32% | 660 nM | – | 30.6% | 9.8% | – |

From ChEMBL document CHEMBL4706703, “Novel 3-benzylidene/benzylphthalide Mannich base derivatives as potential multifunctional agents for the treatment of Alzheimer's disease” (Bioorg Med Chem, 2021)
